From patent US20250099474A1 (priority 2022, published 2025)
Like-named read-outs stand apart in the source and are kept apart here.

Key:
SARS-CoV-2 [1] = format: in vivo, human; settings: Phase 3 Part, mild/moderate patients, ITT, onset to randomization less than 72 hours; for Time to resolution of 12 COVID-19 symptoms: Maximum value / Time to resolution of 14 COVID-19 symptoms: Maximum value / Time to resolution of five COVID-19 symptoms: Maximum value: +: includes censored data
Procedure: The primary endpoint of Phase 3 Part was the time to resolution of five COVID-19 symptoms in mild/moderate SARS-CoV-2-infected patients, and the efficacy was verified by evaluation of the five COVID-19 symptoms in four grades (0: none, 1: mild, 2: moderate, 3: severe) by the patients themselves.
The 750/250 mg group received 750 mg on Day 1 as a loading dose and 250 mg on Days 2 to 5 as a maintenance dose.
The primary efficacy endpoint of Phase 3 Part for mild/moderate SARS-CoV-2-infected patients was the time to resolution of the five COVID-19 symptoms.
Existing symptoms that existed before the onset of COVID-19 and were determined by the subject to be worsening at the baseline (pre-administration test) time point had to be improved […] from the severity at the baseline time point. • Severity at baseline was “severe”→“moderate”, “mild”, or “none” • Severity at baseline was “moderate”→“mild”, or “none” • Severity at baseline was “mild”→[…] “none” • Existing symptoms that existed before the onset of COVID-19 and were determined by the subject not to be worsening at the baseline (pre-administration test) time point had to be maintained or improved from the severity at the baseline time point. • Severity at baseline was “severe”->“severe”, “moderate”, “mild”, or “none” • Severity at baseline was “moderate”->“moderate”, “mild”, or “none” • Severity at baseline was “mild”→“mild”, or “none” • Regarding symptoms other than the above, that is, symptoms that were not present before the onset of COVID-19 and developed at or after the baseline (pre-administration test) time point, such symptoms had to be eliminated. • Severity at baseline was “severe”, “moderate”, or “mild”→“none”
As the key secondary analysis of the primary endpoint, the same analysis as the primary analysis was performed for the population of the mild/moderate SARS-CoV-2-infected patients in the ITT population.

[2] = Phase 2/3 study: frequency of adverse events; format: in vivo, human; settings: for Adverse events leading to discontinuation of administration, causally related to the investigational new drug: recovering or recovered after discontinuation
SARS-CoV-2 [3] = settings: mouse, in vivo
[4] = monkey, in vivo
[5] = 375/125 mg group, 336 cases analyzed
[6] = 750/250 mg group, 330 cases analyzed

## Cn1cnc(Cn2c(=O)[nH]/c(=N\c3cc4cn(C)nc4cc3Cl)n(Cc3cc(F)c(F)cc3F)c2=O)n1 [(6E)-6-[(6-chloro-2-methyl-2H-indazol-5-yl)imino]-3-[(1-methyl-1H-1,2,4-triazol-3-yl)methyl]-1-[(2,4,5-trifluorophenyl)methyl]-1,3,5-triazinane-2,4-dione]
SARS-CoV-2 [1]; 375/125 mg group
  Time to resolution of five COVID-19 symptoms: Number of events (value in parentheses): (75.6)
  Time to resolution of five COVID-19 symptoms: Restricted mean survival time during 21 days (RMST): 241.6 h
  Time to resolution of 12 COVID-19 symptoms: Maximum value: 489.1 h
  Time to resolution of 14 COVID-19 symptoms: Maximum value: 489.1 h
  Time to resolution of five COVID-19 symptoms: Maximum value: 489.1 h
SARS-CoV-2 [1]; [5]
  Time to resolution of 12 COVID-19 symptoms: Number of events: 244
  Time to resolution of 14 COVID-19 symptoms: Number of events: 241
  Time to resolution of five COVID-19 symptoms: Number of events: 254
SARS-CoV-2 [1]; 750/250 mg group
  Time to resolution of 12 COVID-19 symptoms: 25% point: 114.2 h
  Time to resolution of 12 COVID-19 symptoms: 75% point: 422.7 h
  Time to resolution of 12 COVID-19 symptoms: Difference of RMST (vs placebo): -20.8 h
  Time to resolution of 12 COVID-19 symptoms: Difference of median value (vs placebo): -28.3 h
  Time to resolution of 12 COVID-19 symptoms: Kaplan-Meier median value: 184.9 h
  Time to resolution of 12 COVID-19 symptoms: Minimum value: 9.4 h
  Time to resolution of 12 COVID-19 symptoms: Number of events (value in parentheses): (78.2)
  Time to resolution of 12 COVID-19 symptoms: Restricted mean survival time during 21 days (RMST): 249.9 h
  Time to resolution of 14 COVID-19 symptoms: 25% point: 117.1 h
  Time to resolution of 14 COVID-19 symptoms: 75% point: 431.6 h
  Time to resolution of 14 COVID-19 symptoms: Difference of RMST (vs placebo): -22.0 h
  Time to resolution of 14 COVID-19 symptoms: Difference of median value (vs placebo): -41.5 h
  Time to resolution of 14 COVID-19 symptoms: Kaplan-Meier median value: 190.3 h
  Time to resolution of 14 COVID-19 symptoms: Minimum value: 9.4 h
  Time to resolution of 14 COVID-19 symptoms: Number of events (value in parentheses): (77.3)
  Time to resolution of 14 COVID-19 symptoms: Restricted mean survival time during 21 days (RMST): 256.0 h
  Time to resolution of five COVID-19 symptoms: 25% point: 96.7 h
  Time to resolution of five COVID-19 symptoms: 75% point: 360.9 h
  Time to resolution of five COVID-19 symptoms: Difference of RMST (vs placebo): -26.1 h
  Time to resolution of five COVID-19 symptoms: Difference of median value (vs placebo): -21.0 h
  Time to resolution of five COVID-19 symptoms: Kaplan-Meier median value: 171.2 h
  Time to resolution of five COVID-19 symptoms: Minimum value: 9.4 h
  Time to resolution of five COVID-19 symptoms: Number of events (value in parentheses): (79.6)
  Time to resolution of five COVID-19 symptoms: Restricted mean survival time during 21 days (RMST): 234.8 h
  Time to resolution of 12 COVID-19 symptoms: Maximum value: 490.1 h
  Time to resolution of 14 COVID-19 symptoms: Maximum value: 490.1 h
  Time to resolution of five COVID-19 symptoms: Maximum value: 490.1 h
SARS-CoV-2 [1]; 750/250 mg group, 329 cases analyzed
  Time to resolution of five COVID-19 symptoms: Number of events: 262
SARS-CoV-2 [1]; [6]
  Time to resolution of 12 COVID-19 symptoms: Number of events: 258
  Time to resolution of 14 COVID-19 symptoms: Number of events: 255
[2]; Phase 2a Part
  Adverse events leading to deaths: no adverse events leading to deaths
  Deaths, serious adverse events, adverse events leading to discontinuation of administration: no deaths, serious adverse events, or adverse events leading to discontinuation of administration
[2]; Phase 2a Part, 375/125 mg group, both causally related to the investigational new drug
  Adverse events leading to the discontinuation of administration: Two adverse events leading to the discontinuation of administration were observed
[2]; Phase 2a Part, active drug group
  serious adverse events: not in the active drug group
[2]; Phase 3 Part
  Adverse events leading to deaths: no adverse events leading to deaths
[2]; Phase 3 Part, 375/125 mg group, no causal relationship with the investigational new drug
  Serious adverse event: observed in one case
[2]; Phase 3 Part, 375/125 mg group
  Adverse events leading to discontinuation of administration, causally related to the investigational new drug: eczema and emesis
[2]; Phase 3 Part, 750/250 mg group
  Adverse events leading to discontinuation of administration, causally related to the investigational new drug: rash (2 cases)
SARS-CoV-2 [3]
  maximum plasma concentration (Cmax) in humans that reduces the virus titer by 2 log: 14.1 μg/mL
  maximum plasma concentration (Cmax) in humans that reduces the virus titer by 3 log: 23.0 μg/mL
[4]
  NOAEL (plasma concentration): 75.2 to 77.6 µg/mL
